50 compounds from patent US9724351B2, “Compounds for the treatment of paramoxyvirus viral infections” (priority 2012, dated 2017) can be followed below.

The subject of data set [1] is Respiratory Syncytial Virus (RSV) long strain (ATCC#VR-26). Nature of the data set: RSV Antiviral Assay (CPE reduction assay). It counts as cell-based. Conditions: human respiratory syncytial virus, 120 h; HEp-2 cells infected with RSV long strain, 5 days, CCK-8 readout; bins (Table 2: less than 1 μM; Table 3: equal to or higher than 1 μM and less than 50 μM); read-out: 50% effective concentration (EC50). An outline of the steps: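 Cytopathic-effect protection measured after 5 days at 37 °C, 5% CO2 via CCK-8 dehydrogenase readout at 450 nm (630 nm reference), EC50 regressed from mean O.D. Host HEp-2 cells received RSV long strain at 100 TCID50/well; compound 9-point ⅓ series starting 100 μM or 1 μM, 1% DMSO, duplicate wells.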

Data set [2] can be described thus: Cytotoxicity Determination. It counts as cell-based. Conditions: human, HEp-2 cells, without addition of virus, CCK-8 readout, bins (Table 4: greater than 100 μM; Table 5: equal to or less than 100 μM and greater than 10 μM), read-out: 50% cytotoxicity concentration (CC50). In short, it runs like this:
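CC50 was derived from CCK-8 optical density after a 3-4 h reagent incubation. Before that, cells without virus had been treated for 5 days at 37 °C, 5% CO2 with compound at seven ½-step final concentrations from 100 μM, in duplicate wells.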

For the compound `COc1ccc(C(=O)NCC(=O)c2ccc(OC)c(-c3ccc4ccccc4c3)n2)cc1OC` [Compound 1517], the EC50 in data set [1] lay in the range of 1 to 50 µM. Besides, in data set [2], the CC50 at 5 days is over 100 µM.
For `COc1ccc(C(=O)NC(CO)C(=O)c2ccc(OC)c(-c3csc4c(F)cccc34)n2)cc1OC` (stereo not shown) [Compound 1816] the same measures were under 1 µM and over 100 µM.
For `COCC/C(=N/NC(=O)CNC(=O)c1ccc(OC)c(OC)c1)c1csc2c(F)cccc12` [Compound 400-16] the same measures were 1 to 50 µM and over 100 µM.
The matching figures for `COc1ccc(C(=O)NCC(=O)c2cc(C(C)(C)C)cc(-c3csc4c(F)cccc34)n2)cc1OC` [Compound 1252]: under 1 µM and over 100 µM.
With `COc1cc(C(=O)NCC(=O)c2ccc(OC)c(-c3ccc(F)c(Cl)c3)n2)ccc1OC(F)F` [Compound 2646], the EC50 in data set [1] is under 1 µM. Also, the CC50 at 5 days in data set [2] lay in the range of 10 to 100 µM.
For `COc1ccc(C(=O)NCC(=O)N/N=C2\CCCc3sccc32)cc1OC` [Compound 436] the same measures were 1 to 50 µM and over 100 µM.
For `COc1cc(C(=O)NCC(=O)c2cccc(-c3csc4c(F)cccc34)n2)ccc1OC1CCOCC1` [Compound 1224] the same measures were 1 to 50 µM and over 100 µM.
With `COc1ccc(C(=O)NCC(=O)c2ccc(OC)c(-c3ccc(C)cc3)n2)cc1OC` [Compound 1530], the EC50 in data set [1] fell in the range of 1 to 50 µM. For the same compound, the CC50 at 5 days in data set [2] is over 100 µM.
As for `COc1ccc(C(=O)NCC(=O)N/N=C(\CO)c2csc3ccccc23)cc1OC` [Compound 442], the EC50 in data set [1] was in the range of 1 to 50 µM. In addition, the CC50 at 5 days in data set [2] was over 100 µM.
With `COc1cc(C(=O)NCC(=O)c2ccc(OC)c(-c3ccc(S(C)(=O)=O)cc3)n2)ccc1OCCO` [Compound 1604], the EC50 in data set [1] fell in the range of 1 to 50 µM. For the same compound, the CC50 at 5 days in data set [2] is over 100 µM.
For `COc1ccc(C(=O)NCC(=O)N/N=C(\C)c2csc3c(Cl)cccc23)cc1OC` [Compound 400-11] the same measures were 1 to 50 µM and 10 to 100 µM.
The matching figures for `COc1ccc(C(=O)NCC(=O)N/N=C(\C)c2noc3ccccc23)cc1OC` [Compound 491]: 1 to 50 µM and over 100 µM.
For `COCc1ccc(C(=O)NCC(=O)c2ccc(OC)c(-c3ccc(F)c(Cl)c3)n2)cc1OC` [Compound 1323] the same measures were under 1 µM and 10 to 100 µM.
With `COc1ccc(C(=O)NCC(=O)c2ccc(OC)c(-c3ccc(OC(F)(F)F)cc3)n2)cc1OC` [Compound 1532], the EC50 in data set [1] was 1 to 50 µM. Also, the CC50 at 5 days in data set [2] was in the range of 10 to 100 µM.
For `COc1ccc(C(=O)NCC(=O)c2cn(C)c(-c3csc4c(F)cccc34)n2)cc1OC` [Compound 1228] the same measures were 1 to 50 µM and 10 to 100 µM.
The matching figures for `COc1ccc(C(=O)NCC(=O)c2ccc(OC)c(-c3ccc(F)c(Cl)c3)n2)cc1F` [Compound 2642]: 1 to 50 µM and over 100 µM.
The matching figures for `COc1cc(C(=O)NCC(=O)c2ccc(OC)c(-c3csc4ccc(F)cc34)n2)ccc1OCCO` [Compound 1609]: under 1 µM and over 100 µM.
In the case of `COc1ccc(C(=O)NCC(=O)N/N=C(\C)c2c(OC)sc3ccccc23)cc1OC` [Compound 400-19], the EC50 in data set [1] is 1 to 50 µM. Further, the CC50 at 5 days in data set [2] was in the range of 10 to 100 µM.
The matching figures for `COc1cc(C(=O)NCC(=O)c2ccc(OC)c(-c3ccc(F)c(Cl)c3)n2)ccc1OC1COC1` [Compound 1312]: under 1 µM and over 100 µM.
For `COc1cc(C(=O)NCC(=O)c2cc(N(C)C)cc(-c3csc4c(F)cccc34)n2)ccc1OCCO` [Compound 1245] the same measures were under 1 µM and over 100 µM.
The matching figures for `COc1ccc(C(=O)NCC(=O)N/N=C(\CCC(C)C)c2csc3ccccc23)cc1OC` [Compound 455A]: under 1 µM and over 100 µM.
On to `COc1cc(C(=O)NCC(=O)c2cccc(-c3csc4c(F)cccc34)n2)ccc1OCCO` [Compound 1209], for which the EC50 in data set [1] is under 1 µM. Also, the CC50 at 5 days in data set [2] is 10 to 100 µM.
For `COc1ccc(C(=O)NCC(=O)c2ccc(OC)c(-c3cccc4ccccc34)n2)cc1OC` [Compound 1513] the same measures were 1 to 50 µM and 10 to 100 µM.
Consider `COc1ccc(C(=O)NCC(=O)c2ccc3cccnc3c2)cc1OC` [Compound 1700], for which, in data set [1], the EC50 fell in the range of 1 to 50 µM. Besides, the CC50 at 5 days in data set [2] was over 100 µM.
For `COc1cc(C(=O)NCC(=O)c2ccc(OC)c(-c3ccncc3)n2)ccc1OCCO` [Compound 1619] the same measures were 1 to 50 µM and over 100 µM.
For the compound `COc1ccc(C(=O)NCC(=O)N/N=C(/C)c2c(OC)sc3ccccc23)cc1OC` [Compound 400-14], the EC50 in data set [1] fell in the range of 1 to 50 µM. In addition, in data set [2], the CC50 at 5 days was over 100 µM.
As for `COc1ccc(C(=O)NCC(=O)c2ccc(O)c(-c3csc4c(F)cccc34)n2)cc1OC` [Compound 1335], the EC50 in data set [1] is under 1 µM. Besides, the CC50 at 5 days in data set [2] is 10 to 100 µM.
The matching figures for `COc1cc(C(=O)NCC(=O)c2ccc(OC)c(-c3ccnc(Cl)c3)n2)ccc1OCCO` [Compound 1611]: 1 to 50 µM and over 100 µM.
For `COc1cccc(/C(=N/NC(=O)CNC(=O)c2ccc(OC)c(OC)c2)C(F)(F)F)c1` [Compound 450] the same measures were 1 to 50 µM and over 100 µM.
For the compound `CCc1cc(C(=O)CNC(=O)c2ccc(OCCO)c(OC)c2)nc(-c2csc3c(F)cccc23)c1OC` [Compound 2104], in data set [1], the EC50 is under 1 µM. Further, the CC50 at 5 days in data set [2] fell in the range of 10 to 100 µM.
`COc1ccc(C(=O)NCC(=O)N/N=C(\C)c2csc3ccccc23)c(OC)c1OC` [Compound 481]: the EC50 in data set [1] fell in the range of 1 to 50 µM. Moreover, the CC50 at 5 days in data set [2] is over 100 µM.
For `COc1cc(C(=O)NCC(=O)c2ccc(OC)c(-c3ccc(F)c(Br)c3)n2)ccc1OCCO` [Compound 1622] the same measures were under 1 µM and over 100 µM.
The matching figures for `COc1cc(C(=O)NC(C)C(=O)c2ccc(OC)c(-c3ccc(F)c(Cl)c3)n2)ccc1OCCO` (stereo not shown) [Compound 1839]: under 1 µM and 10 to 100 µM.
The matching figures for `CCc1ccc(C(=O)CNC(=O)c2ccc(OC)c(OC)c2)nc1-c1csc2c(F)cccc12` [Compound 2105]: 1 to 50 µM and 10 to 100 µM.
With `COc1ccc(C(=O)NCC(=O)c2ccc(OC)c(-c3cc(C(=O)NC4CCCCC4)ccc3F)n2)cc1OC` [Compound 1514], the EC50 in data set [1] is 1 to 50 µM. Moreover, the CC50 at 5 days in data set [2] was over 100 µM.
The matching figures for `COc1cc(C(=O)NCC(=O)c2ccc(OC)c(-c3ccc(F)c(Br)c3)n2)ccc1OCc1cnc[nH]1` [Compound 1333]: under 1 µM and 10 to 100 µM.
Turning to `CCCC/C(=N\NC(=O)CNC(=O)c1cc(OC)c(OC)cc1Cl)c1csc2ccccc12` [Compound 247], the EC50 in data set [1] fell in the range of 1 to 50 µM. The CC50 at 5 days in data set [2] is over 100 µM.
For `COc1ccc(C(=O)NCC(=O)N/N=C2\CCc3sc4ccccc4c32)cc1OC` [Compound 418] the same measures were 1 to 50 µM and 10 to 100 µM.
The matching figures for `COc1cc(C(=O)CNC(=O)c2ccc(OC)c(OC)c2)nc(-c2ccc(O)cc2)c1` [Compound 1401]: 1 to 50 µM and 10 to 100 µM.
For `CCc1cc(C(=O)CNC(=O)c2ccc(OCCO)c(OC)c2)nc(-c2coc3c(F)cccc23)c1` [Compound 2111], the EC50 in data set [1] is under 1 µM. In addition, the CC50 at 5 days in data set [2] is over 100 µM.
For `COc1ccc(C(=O)NCC(=O)c2ccc(OC)c(-c3c[nH]nc3C)n2)cc1OC` [Compound 1541] the same measures were 1 to 50 µM and over 100 µM.
Consider `COc1cc(C(=O)NCC(=O)c2ccc(OC)c(-c3ccc(Cl)c(F)c3)n2)ccc1OCCO` [Compound 1612], for which the EC50 in data set [1] is under 1 µM. In addition, the CC50 at 5 days in data set [2] is over 100 µM.
The matching figures for `CCOc1ccc(C(=O)NCC(=O)N/N=C(\CC2CCCCC2)c2csc3ccccc23)cc1OC` [Compound 460]: under 1 µM and over 100 µM.
For `COc1ccc(C(=O)NCC(=O)c2cccc(-c3csc4c(F)cccc34)c2)cc1OC` [Compound 1218] the same measures were 1 to 50 µM and over 100 µM.
For `CCCn1cc(-c2csc3c(F)cccc23)nc1C(=O)CNC(=O)c1ccc(OC)c(OC)c1` [Compound 1355] the same measures were 1 to 50 µM and 10 to 100 µM.
Take `COc1ccc(C(=O)NCC(=O)c2ccc(OC)c(-c3ccc(N4CCCCC4)cc3)n2)cc1OC` [Compound 1524]: in data set [1], the EC50 lay in the range of 1 to 50 µM. The CC50 at 5 days in data set [2] was over 100 µM.
For `COc1cc(C(=O)NCC(=O)c2ccc(OC)c(-c3ccc(F)c(O)c3)n2)ccc1OCCO` [Compound 1328] the same measures were under 1 µM and over 100 µM.
The matching figures for `COc1cc(C(=O)NCC(=O)c2ccc(OC)c(-c3ccccc3)n2)ccc1OCCO` [Compound 1613]: under 1 µM and over 100 µM.
For the compound `COc1ccc(C(=O)NCC(=O)c2ccc(OC)c(-c3cccnc3C)n2)cc1OC` [Compound 1540], the EC50 in data set [1] fell in the range of 1 to 50 µM. The CC50 at 5 days in data set [2] is over 100 µM.
For `COc1ccc2scc(/C(C)=N/NC(=O)CNC(=O)c3ccc(OC)c(OC)c3)c2c1` [Compound 400-9] the same measures were 1 to 50 µM and 10 to 100 µM.
